# From patent US12054466B2, “Compounds for the treatment of clostridium difficile infection” (University of Notre Dame du Lac, priority 2016, dated 2024)
# Where two headings read alike, the source gives them in different places.
# Columns and labels:
# Assay type in all cases: cell-based
# C. difficile ATCC43598 = experiment: MIC, broth microdilution; settings: Clostridioides difficile, C. difficile ATCC43598
# C. difficile ATCC43255 = experiment: MIC, broth microdilution; settings: Clostridioides difficile, C. difficile ATCC43255
# C. difficile BAA-1870 = experiment: MIC, broth microdilution; settings: Clostridioides difficile, BAA1870, C. difficile BAA-1870 (NAP1, ribotype 27)
# C. difficile BAA-1804 = experiment: MIC, broth microdilution; settings: Clostridioides difficile, BAA1804, C. difficile BAA-1804
# C. difficile BAA-1803 = experiment: MIC, broth microdilution; settings: Clostridioides difficile, BAA1803, C. difficile BAA-1803 (NAP1, ribotype 027)
# C. difficile BAA-1801 = experiment: MIC, broth microdilution; settings: Clostridioides difficile, BAA1801, C. difficile BAA-1801 (nontoxigenic)
# C. difficile BAA-1812 = experiment: MIC, broth microdilution; settings: Clostridioides difficile, BAA1812, C. difficile BAA-1812
# C. difficile BAA-1814 = experiment: MIC, broth microdilution; settings: Clostridioides difficile, BAA1814, C. difficile BAA-1814
# C. difficile NR49310 = experiment: MIC, broth microdilution; settings: Clostridioides difficile, C. difficile NR49310 (NAP7, ribotype 078)
# C. difficile NR49294 = experiment: MIC, broth microdilution; settings: Clostridioides difficile, C. difficile NR49294 (NAP4, ribotype 014)
# C. difficile NR49305 = experiment: MIC, broth microdilution; settings: Clostridioides difficile, C. difficile NR49305 (NAP6, ribotype 002)
# C. difficile NR49318 = experiment: MIC, broth microdilution; settings: Clostridioides difficile, C. difficile NR49318 (NAP11, ribotype 106)
# C. difficile NR49292 = experiment: MIC, broth microdilution; settings: Clostridioides difficile, C. difficile NR49292 (NAP2, ribotype 001_072)
# C. difficile NR49302 = experiment: MIC, broth microdilution; settings: Clostridioides difficile, C. difficile NR49302 (NAP4, ribotype 020)
# [1] = system: Bacteroides fragilis HM-709; experiment: MIC against common gut bacteria; settings: HM709; Bacteroides fragilis HM-709; read-out: MIC
# Bacteroides fragilis = experiment: MIC against common gut bacteria; settings: read-out: MIC
# Bacteroides ovatus = experiment: MIC against common gut bacteria; settings: read-out: MIC
# Bacteroides vulgatus = experiment: MIC against common gut bacteria; settings: Phocaeicola vulgatus; Bacteroides vulgatus; read-out: MIC
# Bacteroides eggerthii = experiment: MIC against common gut bacteria; settings: read-out: MIC
# Bacteroides caccae = experiment: MIC against common gut bacteria; settings: read-out: MIC
# [2] = system: Bifidobacterium longum HM-846; experiment: MIC against common gut bacteria; settings: HM846; Bifidobacterium longum HM-846; read-out: MIC
# [3] = system: Corynebacterium sp. HM-784; experiment: MIC against common gut bacteria; settings: SP.HM784; Corynebacterium sp. HM-784; incubated aerobically; read-out: MIC
# Description: Minimally-inhibitory concentrations. MICs for C. difficile strains and the common gut bacteria were determined using broth microdilution techniques as reported earlier using brucella broth supplemented with hemin and vitamin K or supplemented BHIS broth (Babakhani et al., J Antimicrob Chemother 2013, 68(3), 515). Lactobacillus MRS broth was used for lactobacillus strains. […] All incubations unless specified otherwise were carried out at 24 or 48 h at 37° C. in an anaerobic chamber (Whitley DG250 workstation, Microbiology International, Frederick, MD). Corynebacterium and lactobacillus species were incubated aerobically.
# [4] = system: Fusobacterium nucleatum HM-992; experiment: MIC against common gut bacteria; settings: HM992; Fusobacterium nucleatum HM-992; read-out: MIC
# [5] = system: Lactobacillus reuteri HM-102; experiment: MIC against common gut bacteria; settings: for MIC: Limosilactobacillus reuteri, HM102, Lactobacillus reuteri HM-102, read-out: MIC
# [6] = system: Lactobacillus gasseri HM-644; experiment: MIC against common gut bacteria; settings: for MIC: HM644, Lactobacillus gasseri HM-644, read-out: MIC
# Veillonella sp. HM-49 = experiment: MIC against common gut bacteria; settings: for MIC: SP.HM49, Veillonella sp. HM-49, read-out: MIC
# Eubacterium sp. HM-178 = experiment: MIC against common gut bacteria; settings: SP.HM178
compound,measurement,setting,value
Oc1ccc(-c2nc(-c3ccc(OC4CCCC4)cc3)no2)cc1 [Compound 2],MIC,"C. difficile ATCC43598; 24 h, read-out: MIC at 24 h",1 µg/mL
same,MIC,"C. difficile ATCC43598; 48 h, read-out: MIC at 48 h",2 µg/mL
same,MIC,"C. difficile ATCC43255; 24 h, read-out: MIC at 24 h",2 µg/mL
same,MIC,"C. difficile ATCC43255; 48 h, read-out: MIC at 48 h",2 µg/mL
same,MIC,"C. difficile BAA-1870; 24 h, read-out: MIC at 24 h",2 µg/mL
same,MIC,"C. difficile BAA-1870; 48 h, read-out: MIC at 48 h",2 µg/mL
same,MIC,"C. difficile BAA-1804; 24 h, read-out: MIC at 24 h",2 µg/mL
same,MIC,"C. difficile BAA-1804; 48 h, read-out: MIC at 48 h",2 µg/mL
same,MIC,"C. difficile BAA-1803; 24 h, read-out: MIC at 24 h",1 µg/mL
same,MIC,"C. difficile BAA-1803; 48 h, read-out: MIC at 48 h",2 µg/mL
same,MIC,"C. difficile BAA-1801; 24 h, read-out: MIC at 24 h",2 µg/mL
same,MIC,"C. difficile BAA-1801; 48 h, read-out: MIC at 48 h",2 µg/mL
same,MIC,"C. difficile BAA-1812; 24 h, read-out: MIC at 24 h",2 µg/mL
same,MIC,"C. difficile BAA-1812; 48 h, read-out: MIC at 48 h",2 µg/mL
same,MIC,"C. difficile BAA-1814; 24 h, read-out: MIC at 24 h",2 µg/mL
same,MIC,"C. difficile BAA-1814; 48 h, read-out: MIC at 48 h",2 µg/mL
same,MIC,"C. difficile NR49310; 24 h, read-out: MIC at 24 h",2 µg/mL
same,MIC,"C. difficile NR49310; 48 h, read-out: MIC at 48 h",4 µg/mL
same,MIC,"C. difficile NR49294; 24 h, read-out: MIC at 24 h",1 µg/mL
same,MIC,"C. difficile NR49294; 48 h, read-out: MIC at 48 h",2 µg/mL
same,MIC,"C. difficile NR49305; 24 h, read-out: MIC at 24 h",2 µg/mL
same,MIC,"C. difficile NR49305; 48 h, read-out: MIC at 48 h",2 µg/mL
same,MIC,"C. difficile NR49318; 24 h, read-out: MIC at 24 h",2 µg/mL
same,MIC,"C. difficile NR49318; 48 h, read-out: MIC at 48 h",4 µg/mL
same,MIC,"C. difficile NR49292; 24 h, read-out: MIC at 24 h",1 µg/mL
same,MIC,"C. difficile NR49292; 48 h, read-out: MIC at 48 h",2 µg/mL
same,MIC,"C. difficile NR49302; 24 h, read-out: MIC at 24 h",2 µg/mL
same,MIC,"C. difficile NR49302; 48 h, read-out: MIC at 48 h",2 µg/mL
same,MIC,[1],1 µg/mL
same,MIC,Bacteroides fragilis,2 µg/mL
same,MIC,Bacteroides ovatus,2 µg/mL
same,MIC,Bacteroides vulgatus,2 µg/mL
same,MIC,Bacteroides eggerthii,1 µg/mL
same,MIC,Bacteroides caccae,2 µg/mL
same,MIC,[2],1 µg/mL
same,MIC,[3],0.5 µg/mL
same,MIC,[4],2 µg/mL
same,MIC,[5],> 128 µg/mL
same,Activity against Lactobacillus reuteri,[5]; in words,not active
same,MIC,[6],> 128 µg/mL
same,Activity against Lactobacillus gasseri,[6]; in words,not active
same,MIC,Veillonella sp. HM-49,> 128 µg/mL
same,Activity against Veillonella sp.,Veillonella sp. HM-49; in words,not active
same,MIC,Eubacterium sp. HM-178,4 µg/mL
CCc1c(Cl)c(O)c(Cl)c(O)c1C(=O)O[C@H]1[C@H](O)[C@H](OC)[C@H](OC/C2=C\C=C\C[C@H](O)/C(C)=C/[C@H](CC)[C@@H](O[C@@H]3OC(C)(C)[C@@H](OC(=O)C(C)C)[C@H](O)[C@@H]3O)/C(C)=C/C(C)=C/C[C@@H]([C@@H](C)O)OC2=O)O[C@@H]1C [fidaxomicin],MIC,"C. difficile ATCC43598; 24 h, read-out: MIC at 24 h",0.01 µg/mL
same,MIC,"C. difficile ATCC43598; 48 h, read-out: MIC at 48 h",0.01 µg/mL
same,MIC,"C. difficile ATCC43255; 24 h, read-out: MIC at 24 h",0.01 µg/mL
same,MIC,"C. difficile ATCC43255; 48 h, read-out: MIC at 48 h",0.01 µg/mL
same,MIC,"C. difficile BAA-1870; 24 h, read-out: MIC at 24 h",< 0.25 µg/mL
same,MIC,"C. difficile BAA-1870; 48 h, read-out: MIC at 48 h",0.25 µg/mL
same,MIC,"C. difficile BAA-1804; 24 h, read-out: MIC at 24 h",< 0.25 µg/mL
same,MIC,"C. difficile BAA-1804; 48 h, read-out: MIC at 48 h",< 0.25 µg/mL
same,MIC,"C. difficile BAA-1803; 24 h, read-out: MIC at 24 h",0.5 µg/mL
same,MIC,"C. difficile BAA-1803; 48 h, read-out: MIC at 48 h",1 µg/mL
same,MIC,"C. difficile BAA-1801; 24 h, read-out: MIC at 24 h",0.03 µg/mL
same,MIC,"C. difficile BAA-1801; 48 h, read-out: MIC at 48 h",0.125 µg/mL
same,MIC,"C. difficile BAA-1812; 24 h, read-out: MIC at 24 h",0.015 µg/mL
same,MIC,"C. difficile BAA-1812; 48 h, read-out: MIC at 48 h",0.125 µg/mL
same,MIC,"C. difficile BAA-1814; 24 h, read-out: MIC at 24 h",≤ 0.01 µg/mL
same,MIC,"C. difficile BAA-1814; 48 h, read-out: MIC at 48 h",0.03 µg/mL
same,MIC,"C. difficile NR49310; 24 h, read-out: MIC at 24 h",≤ 0.01 µg/mL
same,MIC,"C. difficile NR49310; 48 h, read-out: MIC at 48 h",≤ 0.01 µg/mL
same,MIC,"C. difficile NR49294; 24 h, read-out: MIC at 24 h",≤ 0.01 µg/mL
same,MIC,"C. difficile NR49294; 48 h, read-out: MIC at 48 h",0.01 µg/mL
same,MIC,"C. difficile NR49305; 24 h, read-out: MIC at 24 h",0.01 µg/mL
same,MIC,"C. difficile NR49305; 48 h, read-out: MIC at 48 h",0.01 µg/mL
same,MIC,"C. difficile NR49318; 24 h, read-out: MIC at 24 h",0.25 µg/mL
same,MIC,"C. difficile NR49318; 48 h, read-out: MIC at 48 h",0.125 µg/mL
same,MIC,"C. difficile NR49292; 24 h, read-out: MIC at 24 h",0.25 µg/mL
same,MIC,"C. difficile NR49292; 48 h, read-out: MIC at 48 h",0.5 µg/mL
same,MIC,"C. difficile NR49302; 24 h, read-out: MIC at 24 h",0.03 µg/mL
same,MIC,"C. difficile NR49302; 48 h, read-out: MIC at 48 h",0.03 µg/mL
same,MIC,[1],> 32 µg/mL
same,MIC,Bacteroides fragilis,> 32 µg/mL
same,MIC,Bacteroides ovatus,> 32 µg/mL
same,MIC,Bacteroides vulgatus,> 32 µg/mL
same,MIC,Bacteroides eggerthii,> 32 µg/mL
same,MIC,Bacteroides caccae,> 32 µg/mL
same,MIC,[2],< 0.01 µg/mL
same,MIC,[3],< 0.06 µg/mL
same,MIC,[4],< 0.06 µg/mL
same,MIC,[5],> 32 µg/mL
same,MIC,[6],2 µg/mL
same,MIC,Veillonella sp. HM-49,8 µg/mL
same,MIC,Eubacterium sp. HM-178,16 µg/mL
